In ChEMBL document CHEMBL5143648, “Exploration of inhibitors of the bacterial LexA repressor-protease” (Bioorg Med Chem Lett, 2022):

Experiment: Inhibition of N-terminal tetra-cysteine tagged LexA repressor (unknown origin) assessed as reduction in RecA-mediated autoproteolysis by measuring release of fluorophore-labeled peptide using FlAsH-EDT2 as fluorescent substrate by FlAsH-LexA assay
Parameters: species or system Bacteria

| SMILES | IC50 [µM] |
| --- | --- |
| Cc1ccc(NC(=O)Cn2nnc(C(=O)Nc3ccccc3)c2N)c(C)c1 | > 250 |
| Nc1c(C(=O)Nc2ccccc2)nnn1CC(=O)Nc1ccc(O)cc1 | > 250 |
| Nc1c(C(=O)Nc2ccccc2)nnn1CC(=O)Nc1ccc(C(=O)C(F)(F)F)cc1 | > 250 |
| Cc1ccccc1NC(=O)Cn1nnc(C(=O)Nc2ccccc2)c1N | > 250 |
| Nc1c(C(=O)Nc2ccccc2)nnn1CC(=O)Nc1ccc(Cl)cc1 | > 250 |
| Cc1ccc(/N=C2\NC(=O)C(N)=C2C(=O)Nc2ccccc2)cc1 | > 250 |
| Nc1ccc(NC(=O)Cn2nnc(C(=O)Nc3ccccc3)c2N)cc1 | > 250 |

Results, then the compound that gave them:

| IC50 [µM] | SMILES |
| --- | --- |
| > 250 | Nc1c(C(=O)Nc2ccccc2)nnn1CC(=O)Nc1c(Cl)cc(Cl)cc1Cl |
| > 250 | Nc1c(C(=O)Nc2ccccc2)nnn1CC(=O)NC1CCCCCC1 |
| 48 | CCOc1ccc(NC(=O)Cn2nnc(C(=O)Nc3ccccc3)c2N)cc1 |
| 107 | Cc1ccc(NC(=O)Cn2nnc(C(=O)Nc3ccccc3)c2N)cc1 |
| 75 | COC(=O)c1ccc(NC(=O)Cn2nnc(C(=O)Nc3ccccc3)c2N)cc1 |
